Active and inactive are the calls of the source. For most assays here, no stated cut-off is given here; in the data, actives have a measured EC50 and inactives only a lower limit.
Assays:
[1] = target: T1, Polyadenylate-binding protein 1 (Homo sapiens, UniProt P11940); test: PABP1 MLLE–PAM2 interaction inhibitors, dose response, miRNA deadenylation inhibitor project, biochemical, fluorescence polarization, Cy5-PAM2 peptide, secondary (AID 602260); format: functional; settings: read-out: IC50_Mean
T1 sequence (P11940 whole entry): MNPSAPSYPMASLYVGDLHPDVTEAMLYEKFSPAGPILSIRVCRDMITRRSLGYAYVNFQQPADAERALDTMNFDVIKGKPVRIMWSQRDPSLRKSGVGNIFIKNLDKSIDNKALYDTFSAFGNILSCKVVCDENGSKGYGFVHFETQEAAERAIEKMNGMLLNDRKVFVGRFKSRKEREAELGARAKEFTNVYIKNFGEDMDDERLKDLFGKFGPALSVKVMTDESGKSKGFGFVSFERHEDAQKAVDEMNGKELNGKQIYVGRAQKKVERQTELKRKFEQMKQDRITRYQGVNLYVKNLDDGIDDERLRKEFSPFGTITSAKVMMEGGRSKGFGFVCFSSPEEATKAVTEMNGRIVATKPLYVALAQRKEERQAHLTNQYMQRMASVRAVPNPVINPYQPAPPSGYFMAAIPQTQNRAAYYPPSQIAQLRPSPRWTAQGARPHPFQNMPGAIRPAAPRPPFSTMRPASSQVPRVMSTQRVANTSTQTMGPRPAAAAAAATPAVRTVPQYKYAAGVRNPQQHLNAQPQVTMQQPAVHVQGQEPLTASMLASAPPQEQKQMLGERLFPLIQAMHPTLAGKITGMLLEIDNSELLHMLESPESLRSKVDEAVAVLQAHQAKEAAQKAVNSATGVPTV

[2] = target: T1, Polyadenylate-binding protein 1; test: PABP1 MLLE–PAM2 binding inhibitor potency, dose response, biochemical, fluorescence polarization, FITC-PAM2 peptide (AID 602259); format: functional; settings: read-out: IC50_Mean
cells [3] = format: functional, cell-based
cells [4] = format: functional, cell-based; remark: listed apart in the source
[5] = Luminescence Cell-Based Dose Confirmation HTS to Identify Inhibitors of Platelet Dense Granule Release. [Related pubchem assays: 1663 (Primary HTS), 1678 (Summary of Project)]; format: functional
[6] = Luminescence Cell-Based Dose Confirmation HTS to Identify Activators of 5'UTR Stem-Loop Driven Alpha-Synuclein mRNA Translation in H4 Neuroglioblastoma Cells. [Related pubchem assays: 1829 (Project Summary), 1814 (Primary HTS)]; format: functional
[7] = Luminescence Cell-Based Dose Response HTS to Identify Activators of Luciferase Translation or Activity in H4 […] Cells. [Related pubchem assays: 1829 (Project Summary), 1814 (Primary HTS)]; format: functional
H4 = test: Luminescence Cell-Based Dose Response HTS to Identify Activators of 5'UTR Stem-Loop Driven Prion Protein mRNA Translation in H4 Neuroglioblastoma Cells. [Related pubchem assays: 1829 (Project Summary), 1814 (Primary HTS)]; format: functional; settings: Homo sapiens
[8] = target: Luciferin 4-monooxygenase (Photinus pyralis, UniProt P08659); test: firefly luciferase enzyme inhibitors, dose response, biochemical, luminescence (AID 1891)
Sequence of Luciferin 4-monooxygenase (P08659 whole entry): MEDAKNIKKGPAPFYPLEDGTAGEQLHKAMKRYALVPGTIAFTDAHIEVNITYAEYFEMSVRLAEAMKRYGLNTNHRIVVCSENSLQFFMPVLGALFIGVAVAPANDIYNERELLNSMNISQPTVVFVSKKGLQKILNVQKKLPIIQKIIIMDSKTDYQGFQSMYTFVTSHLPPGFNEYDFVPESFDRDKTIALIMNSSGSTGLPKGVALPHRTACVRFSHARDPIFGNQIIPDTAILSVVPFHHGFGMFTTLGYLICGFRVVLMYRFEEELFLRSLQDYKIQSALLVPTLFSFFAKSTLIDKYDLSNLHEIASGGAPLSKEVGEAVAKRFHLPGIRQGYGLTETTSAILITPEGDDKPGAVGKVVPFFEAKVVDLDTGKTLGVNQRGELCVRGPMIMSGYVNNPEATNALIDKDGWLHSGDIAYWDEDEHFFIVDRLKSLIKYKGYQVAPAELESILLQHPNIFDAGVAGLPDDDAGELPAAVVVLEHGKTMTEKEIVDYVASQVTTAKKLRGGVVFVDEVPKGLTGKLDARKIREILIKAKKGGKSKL

[9] = HepG2 cell cytotoxicity, dose response, cytotoxicity control for Shn3 inhibitor project, CellTiter-Glo, cherry-picked (AID 624134); format: functional, cell-based
[10] = Shn3 3'UTR reporter inhibitors, dose response, cell-based, Clone20 osteoblasts, firefly luciferase, cherry-picked (AID 624132); format: functional;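 further: firefly luciferase luminescence from reporter carrying the Shn3 3'UTR in osteoblasts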
[11] = control 3'UTR Renilla luciferase suppression, dose response, counter-screen for Shn3 inhibitor project, cell-based, Clone20-Shn3RL, cherry-picked (AID 624133); format: functional
[12] = NIH-3T3 fibroblast cytotoxicity, dose response, cytotoxicity control, cell-based, fluorescence, Alamar Blue, secondary assay (AID 2327); format: functional;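 further: NIH-3T3 mouse fibroblasts cultured with fluconazole at 8 µg/mL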
[13] = C. albicans growth with fluconazole, confirmation, fluorescence, retest (AID 2467); format: functional, cell-based
[14] = target: T2, Replicative DNA helicase DnaB (Mycobacterium tuberculosis, UniProt P9WMR3); test: DnaB intein splicing inhibitors, dose response, biochemical, cell-free fluorescence (AID 449749); format: functional
T2 sequence (P9WMR3 whole entry): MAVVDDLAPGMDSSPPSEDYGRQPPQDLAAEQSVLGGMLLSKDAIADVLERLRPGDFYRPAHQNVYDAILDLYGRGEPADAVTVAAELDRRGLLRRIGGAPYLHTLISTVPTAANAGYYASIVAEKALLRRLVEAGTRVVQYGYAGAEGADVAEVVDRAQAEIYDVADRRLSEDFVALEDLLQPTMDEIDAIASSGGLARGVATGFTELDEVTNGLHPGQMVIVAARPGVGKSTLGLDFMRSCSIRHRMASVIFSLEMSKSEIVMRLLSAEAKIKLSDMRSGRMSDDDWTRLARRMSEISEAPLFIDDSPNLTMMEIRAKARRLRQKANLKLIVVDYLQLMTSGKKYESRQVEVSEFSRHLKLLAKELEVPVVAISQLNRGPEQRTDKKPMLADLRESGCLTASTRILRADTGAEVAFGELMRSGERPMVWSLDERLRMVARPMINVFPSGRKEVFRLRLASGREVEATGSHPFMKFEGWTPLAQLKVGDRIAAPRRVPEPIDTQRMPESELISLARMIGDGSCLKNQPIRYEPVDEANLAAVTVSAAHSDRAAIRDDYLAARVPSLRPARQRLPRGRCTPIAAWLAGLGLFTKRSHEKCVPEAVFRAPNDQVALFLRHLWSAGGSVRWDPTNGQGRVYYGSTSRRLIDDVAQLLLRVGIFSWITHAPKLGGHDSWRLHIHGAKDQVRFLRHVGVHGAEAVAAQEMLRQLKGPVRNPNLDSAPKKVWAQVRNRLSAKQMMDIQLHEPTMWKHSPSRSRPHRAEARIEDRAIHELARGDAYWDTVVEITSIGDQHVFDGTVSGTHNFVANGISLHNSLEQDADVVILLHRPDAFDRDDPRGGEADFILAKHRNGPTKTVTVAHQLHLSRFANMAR

Protein RecA = target: T3, Protein RecA (Mycobacterium tuberculosis, UniProt P9WHJ3); test: Fluorescence Cell-Free Homogeneous Dose Retest to Identify Inhibitors of RecA-Intein Splicing Activity. [Related pubchem assays (depositor defined):AID2097, AID2223, AID489010, AID492950]; format: functional
T3 sequence (P9WHJ3 whole entry): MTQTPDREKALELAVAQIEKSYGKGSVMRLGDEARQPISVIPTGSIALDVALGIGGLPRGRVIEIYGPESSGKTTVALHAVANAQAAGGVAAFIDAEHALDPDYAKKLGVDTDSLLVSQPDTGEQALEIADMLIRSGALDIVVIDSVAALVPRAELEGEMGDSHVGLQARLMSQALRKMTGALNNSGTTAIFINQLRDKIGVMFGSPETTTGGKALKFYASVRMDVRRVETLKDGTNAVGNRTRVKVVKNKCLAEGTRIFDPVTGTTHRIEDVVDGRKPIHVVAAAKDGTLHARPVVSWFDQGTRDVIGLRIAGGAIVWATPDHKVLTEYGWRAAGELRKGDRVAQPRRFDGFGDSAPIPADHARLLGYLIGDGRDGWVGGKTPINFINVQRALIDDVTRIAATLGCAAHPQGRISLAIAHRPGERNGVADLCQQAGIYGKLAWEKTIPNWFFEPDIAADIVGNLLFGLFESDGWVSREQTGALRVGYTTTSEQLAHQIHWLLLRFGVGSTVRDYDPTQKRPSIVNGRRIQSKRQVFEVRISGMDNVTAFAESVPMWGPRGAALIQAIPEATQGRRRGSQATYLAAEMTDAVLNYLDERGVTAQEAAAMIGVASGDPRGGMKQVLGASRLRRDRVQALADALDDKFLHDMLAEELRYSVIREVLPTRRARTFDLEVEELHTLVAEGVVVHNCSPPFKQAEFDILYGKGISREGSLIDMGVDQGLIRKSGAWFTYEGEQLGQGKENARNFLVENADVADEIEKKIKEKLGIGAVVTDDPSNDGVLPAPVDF

[15] = target: T4, Heat shock factor protein 1 (Mus musculus, UniProt P38532); test: inhibition of MG132-induced HSE-luciferase signal, confirmation, cell-based, NIH3T3, luminescence, dose retest (AID 2382); format: functional;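 further: NIH3T3 fibroblasts with HSF1-driven luciferase reporter stressed by proteasome inhibitor MG132; luminescence from HSF1-driven luciferase expression after 8 hours of MG132 stress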
T4 sequence (P38532 whole entry): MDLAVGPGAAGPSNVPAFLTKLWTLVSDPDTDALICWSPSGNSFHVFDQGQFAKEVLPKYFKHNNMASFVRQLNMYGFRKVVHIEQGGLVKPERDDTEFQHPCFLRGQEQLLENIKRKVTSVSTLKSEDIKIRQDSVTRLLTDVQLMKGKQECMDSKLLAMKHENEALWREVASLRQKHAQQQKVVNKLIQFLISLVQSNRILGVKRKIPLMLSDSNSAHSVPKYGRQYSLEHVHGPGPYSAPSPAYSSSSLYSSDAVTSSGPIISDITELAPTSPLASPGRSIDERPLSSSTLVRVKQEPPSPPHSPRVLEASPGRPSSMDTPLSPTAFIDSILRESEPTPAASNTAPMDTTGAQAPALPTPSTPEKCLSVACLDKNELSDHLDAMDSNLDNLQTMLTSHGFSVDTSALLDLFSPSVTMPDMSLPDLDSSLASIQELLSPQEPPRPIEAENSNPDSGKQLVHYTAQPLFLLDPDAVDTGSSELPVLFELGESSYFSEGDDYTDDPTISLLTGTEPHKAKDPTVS

NS(=O)(=O)c1ccc(NC(=S)NC(=O)c2ccc(-c3ccccc3)cc2)cc1
IC50 [1]: > 66 µM (inactive) | IC50 [2]: > 66 µM (inactive)

Cc1ccc(CN(CC(=O)NC2CCCC2)C(=O)CSc2nnc(COc3ccccc3)o2)cc1
IC50 [1]: > 66 µM (inactive) | IC50 [2]: > 66 µM (inactive)

O=C(Cn1c(SCC(=O)N2CCCc3ccccc32)nc2ccccc21)N1CCCC1
EC50 (cells [3]): > 350 µM (not active) | EC50 (cells [4]): > 350 µM (not active)

CCCc1nc2oc3c(O)ncnc3c2c2c1CCCC2
EC50 [5]: > 112 µM (not active)

C1=C(CCNc2[nH]cnc3ncnc2-3)CCCC1
EC50 [6]: 52.3 µM (active) | EC50 [7]: 20 µM (active) | EC50 (H4): 40 µM (active)

CCOc1ccc(NC(=O)CSc2nnc(Cn3cnc4ccccc43)n2C)cc1
EC50 (cells [3]): > 350 µM (not active) | EC50 (cells [4]): > 350 µM (not active)

Cc1ccc2c(c1)sc(C)[n+]2CCCS(=O)(=O)[O-]
IC50 [1]: > 66 µM (inactive) | IC50 [2]: > 66 µM (inactive)

CCCCCCC1CCC(c2nc(-c3ccncc3)no2)CC1 (stereo not given)
EC50 (cells [3]): > 350 µM (not active) | EC50 (cells [4]): > 350 µM (not active)

CC(NC(=O)CCc1nc2cc(S(=O)(=O)N3CCOCC3)ccc2n1C)c1ccc(S(N)(=O)=O)cc1 (stereo not given)
EC50 [8]: > 112 µM (not active) | EC50 [5]: 41.7 µM (active)

CCOC(=O)C1=C(CNCc2ccccc2Cl)NC(=O)NC1c1cccc([N+](=O)[O-])c1 (stereo not given)
EC50 [8]: > 112 µM (not active) | EC50 [5]: > 112 µM (not active)

CCN(CC)S(=O)(=O)c1ccc(N(C)Cc2cccc(OC)c2OC)nc1
AC50 [9]: 57.1 µM (active)

Cc1nnsc1[S+]([O-])c1ccc(Br)cc1 (stereo not given)
EC50 [6]: 21.9 µM (active) | EC50 [7]: 6.67 µM (active) | EC50 (H4): > 120 µM (not active)

CC12CC3(C)CC(C)(C1)CC(C(=O)NC(=S)NC(C)(C)C)(C2)C3
IC50 [1]: > 66 µM (inactive) | IC50 [2]: > 66 µM (inactive)

Cc1ccc(CC(=O)Nc2ccncc2)cc1
AC50 [10]: 2.39 µM (active) | AC50 [9]: 3.99 µM (active) | AC50 [11]: 15.2 µM (active)

CCOC(=O)C1CCCN(C(=O)c2ccc3oc(CCc4ccccc4)nc3c2)C1 (stereo not given)
EC50 [12]: > 150 µM (inactive) | EC50 (cells [3]): > 350 µM (not active) | EC50 [13]: > 38 µM (not active) | EC50 (cells [4]): > 350 µM (not active)

Clc1ccc(Nc2nc3cccnc3s2)cc1
EC50 [6]: 0.341 µM (active) | EC50 [7]: 0.333 µM (active)

O=S(=O)(CCSc1nc2ccccc2s1)c1nc2ccccc2s1
EC50 (cells [3]): > 350 µM (not active) | EC50 (cells [4]): > 350 µM (not active) | AC50 [14]: 2.29 µM (active) | EC50 (Protein RecA): 2.22 µM (active)

COC(=O)C(NC(=O)c1c(C)nn(C)c1Cl)c1ccccc1 (stereo not given)
EC50 (cells [3]): > 350 µM (not active) | EC50 (cells [4]): > 350 µM (not active)

Cn1nnc(NC(=O)c2cccc([N+](=O)[O-])c2)n1
EC50 (cells [3]): > 350 µM (not active) | EC50 (cells [4]): > 350 µM (not active)

Cc1ccc(C2CCN(C(S)=NC(C)(C)C)C2)cc1 (stereo not given)
EC50 [6]: 14.9 µM (active) | EC50 [7]: 18.1 µM (active) | EC50 (H4): 62.4 µM (active) | EC50 [15]: > 195 µM (not active)

COC(=O)C1=C(C(=O)OC)[C@@H]2N(Cc3ccccc3)c3ccccc3[C@@]23C[C@@H](C(=O)OC)N(C(=O)c2ccc(Br)cc2)C3=N1
AC50 [10]: 8.52 µM (active) | AC50 [9]: 34.8 µM (active) | AC50 [11]: 23.7 µM (active)

CC(C)COc1ccc(C(=O)Nc2ccc([N+](=O)[O-])cc2)cc1
EC50 (cells [3]): > 350 µM (not active) | EC50 (cells [4]): > 350 µM (not active)

COc1cccc(OCCn2cc(C(C)=O)c3ccccc32)c1
AC50 [10]: 1.85 µM (active) | AC50 [9]: 7.55 µM (active) | AC50 [11]: 7.82 µM (active)

O=C(Nc1ccccc1[N+](=O)[O-])c1ccc(S(=O)(=O)N2CCCC2)cc1
EC50 [6]: 10.8 µM (active) | EC50 [7]: 9.21 µM (active) | EC50 (H4): 14.6 µM (active)

CCc1nc2scc(-c3cccs3)c2c(=O)o1
EC50 [8]: > 112 µM (not active) | EC50 [5]: > 112 µM (not active)

COc1cc(C)c(NC(=O)COc2cccc3c2OC(C)(C)C3)cc1OC
AC50 [10]: 7.06 µM (active) | AC50 [9]: 65.7 µM (active) | AC50 [11]: 11.3 µM (active)

C/C(=N\NC(=O)c1ccc2c(c1)OCCO2)c1ccccc1
EC50 [8]: 12.8 µM (active) | EC50 [5]: 2.98 µM (active)

— ChEMBL document CHEMBL1201862, “PubChem BioAssay data set” (2004)
